The conditions of data set [1]: cited from earlier work; for acute EC50: 30 min Photobacterium phosphoreum (marine light-emitting bacteria); for Biodegradability classification in Closed Bottle and Modified OECD Screening Tests: both Closed Bottle and Modified OECD Screening Tests; for EC50: 3 weeks, Selenastrum capricornutum.
The test system of data set [2] is Xenotropic Murine Leukemia Virus (XMuLV). The class given is cell-based. The following applies: for xMuLV inactivation LRV, Time 2 / xMuLV inactivation LRV, Time 3 / xMuLV inactivation LRV, Time 0.5 / xMuLV inactivation LRV, Time 1 / xMuLV inactivation LRV, Time 6 / xMuLV inactivation, in words: 20° C.; for xMuLV inactivation LRV, Time 2: 2 h; for xMuLV inactivation LRV, Time 3: 3 h; for xMuLV inactivation LRV, Time 0.5: 0.5 h; for xMuLV inactivation LRV, Time 1: 1 h; for xMuLV inactivation LRV, Time 6: 6 h; for xMuLV inactivation, in words: detergent or solvent alone; for XMuLV LRV: rProtein1 CaptoAdhere Pool, Room Temperature.

Data set [3] in a line: Detergent mixing turbidity analysis (average absorbance 340-360 nm). The following applies: MAb1 HCCF. The class given is physicochemical.
Data set [4] can be described thus: Turbidity after detergent exposure. The class given is physicochemical. The following applies: MAb3 HCCF and MAb3 MSS pool, three hours.
Data set [5] in a line: EHS evaluation: basic physical and toxicological characteristics from manufacturer and government literature. The following applies: not solid due to the algal and fish data.
For data set [6], the system named is bovine viral diarrhea virus (BVDV). As to the kind of experiment: BVDV inactivation, plaque assay with BT indicator cells (LRV). It is filed as cell-based. The following applies: rProtein 2 HCCF, 0.3% Detergent, 20° C., Run 1, Run 2.
The mark [7] stands for this setting: MAb1 HCCF, listed as 0.03M caprylate pH 4.5.
The mark [8] stands for this setting: MAb1 HCCF, listed as 0.03M caprylate pH 7.6.
Setting [9] is: MAb1 HCCF, listed as 0.1M caprylate pH 5.0.
Where [10] appears, read: MAb1 HCCF, listed as 0.1M caprylate pH 7.6.
Where [11] appears, read: MAb1 HCCF, listed as 1% Polysorbate 20.
Setting [12] is: MAb1 HCCF, listed as 2% Polysorbate 20.
The mark [13] stands for this setting: various (12 species) marine microalgae, 10-12 d.
Setting [14] is: ~2 d, Sphaerechinus granularis, sea urchin embryo-larval test, marine.
[15] abbreviates: MAb1 Protein A pool, listed as 1% Polysorbate 80.
Setting [16] is: MAb1 Protein A pool, listed as 2% Polysorbate 80.

Several values for one entry are separate records, joined by “and”; a condition that tells them apart may be missing. Identical values can stand only once. Like-named read-outs stand apart in the source and are kept apart here.

The source of these data is patent US10611795B2, “Methods for viral inactivation using eco-friendly detergents” (priority 2013, dated 2020).

Regarding `CCCCCCOC1OC(CO)C(O)C(O)C1O` (stereo not drawn) [Alkylglucosides C6], in data set [1], the “acute EC50” value is listed as “EC50: C6 = 490 mg/l; C8 =”; the “Biodegradability classification in Closed Bottle and Modified OECD Screening Tests” value is “C10 and C12) are readily”.

Take `CCCCCCCCOC1OC(CO)C(O)C(O)C1O` (stereo not drawn) [Alkylglucosides C8]: in data set [1], the “acute EC50” value was 11.7 µg/mL; the “Biodegradability classification in Closed Bottle and Modified OECD Screening Tests” value was “C10 and C12) are readily”.

Turning to `CCCCCCCCCCOC1OC(CO)C(O)C(O)C1O` (stereo not drawn) [Alkylglucosides C10], in data set [1], the “acute EC50” value is 7.9 µg/mL; the “Biodegradability classification in Closed Bottle and Modified OECD Screening Tests” value was “C10 and C12) are readily”.

For the compound `CCCCCCCCCCCCOC1OC(CO)C(O)C(O)C1O` (stereo not drawn) [Alkylglucosides C12], in data set [1], the “acute EC50” value is “C12 = 8.8 mg/l), 30 min”; the “Biodegradability classification in Closed Bottle and Modified OECD Screening Tests” value is “C10 and C12) are readily”.

`CCCCCCCC(=O)O` [caprylate, caprylic acid]: the “xMuLV inactivation LRV, Time 2” value in data set [2] (setting [7]) was not below 5.0; in data set [2] (setting [8]), 0.21; in data set [2] (setting [9]), not below 5.1; in data set [2] (setting [10]), not below 6.0. The “xMuLV inactivation LRV, Time 3” value in data set [2] (setting [7]) was not below 5.0; in data set [2] (setting [8]), 0.30; in data set [2] (setting [9]), not below 5.1; in data set [2] (setting [10]) it was not below 6.0. For the same compound, the “turbidity during mixing, after filtration and overnight incubation (FIGS. 2, 3), in words” value in data set [3] was “Turbidity increased with the addition and mixing”. For the same compound, the “turbidity, in words” value in data set [4] is listed as “Significant turbidity”.

For the compound `CCCCCCCCCCCC(=O)NCCC[N+](C)(C)CC(=O)[O-]` [lauramidopropyl betaine], the Biodegradability classification result in data set [1] (as stated in the Biodegradability column, no single test named) is “readily biodegradable”.

In the case of Polysorbate 20, in data set [2] (setting [11]), the “xMuLV inactivation LRV, Time 0.5” value was 1.0; the “xMuLV inactivation LRV, Time 1” value was 1.4; the “xMuLV inactivation LRV, Time 3” value is on record as 2.3; the “xMuLV inactivation LRV, Time 6” value is listed as 4.5. For the same compound, in data set [2] (setting [12]), the “xMuLV inactivation LRV, Time 0.5” value turned out to be 0.6; the “xMuLV inactivation LRV, Time 1” value is 0.7; the “xMuLV inactivation LRV, Time 3” value is recorded as 2.2; the “xMuLV inactivation LRV, Time 6” value was found to be 5.6. For the same compound, the “xMuLV inactivation, in words” value in data set [2] (MAb1 HCCF) is recorded as “less effective”. Besides, the “acute LC50” value in data set [1] (1 d Artemia sp. (marine)) was “acute LC50 1447 mg/l 1 d”. Moreover, the LC50 result in data set [1] (1 d Poecilia reticulata, freshwater) was “LC50 350 mg/l 1 d Poecilia”. In addition, the “Biodegradability according to Roche's inherent biodegradability test (OECD 302)” value in data set [1] is listed as “Poor biodegradability”. Besides, the EC50 entry in data set [1] (freshwater) is “EC50 ≤100 mg/l 3 weeks”. The “acute NOEC” value in data set [1] (highest tested concentration, limit test, 48 h Daphnia magna, OECD202) is “acute NOEC 10 mg/l”. Also, in data set [1] (highest tested concentration, limit test, 21 d Daphnia magna, OECD repro), the “chronic NOEC” value is given as “chronic NOEC 10 mg/l”. The “chronic NOEC” value in data set [1] (setting [13]) is “chronic NOEC 10 mg/l”. In addition, in data set [1] (setting [14]), the “chronic NOEC” value is on record as “chronic NOEC 20 mg/l ~2 d,”. Also, in data set [5], the “preliminary acute-based freshwater PNEC” value was “freshwater PNEC 0.1 mg/l,”.

Polysorbate 80: the “xMuLV inactivation LRV, Time 1” value in data set [2] (MAb1 HCCF) is listed as 3.3; in data set [2] (setting [15]), 0.9; in data set [2] (setting [16]), 0.7. In addition, the entries for the “xMuLV inactivation LRV, Time 3” value in data set [2] (MAb1 HCCF), in data set [2] (setting [15]) and in data set [2] (setting [16]) were 5.7, 1.1 and 1.0, respectively. Moreover, the “xMuLV inactivation, in words” value in data set [2] (MAb1 HCCF) is “less effective”. Further, the “xMuLV inactivation LRV, Time 0.5” value came out at 0.4 in data set [2] (setting [15]) and 0.7 in data set [2] (setting [16]). Also, the “xMuLV inactivation LRV, Time 2” value in data set [2] (MAb1 Protein A pool) amounted to 1.2. Besides, the “XMuLV LRV” value in data set [2] (5 min, Run 1, Run 2) is given as “.45”; in data set [2] (10 min, Run 1, Run 2) it was “.57”; in data set [2] (15 min) it was “.82”; in data set [2] (30 min), 2.1. In addition, the “time to effective XMuLV inactivation” value in data set [2] (rProtein1 CaptoAdhere pool, room temperature) was 1 h. The “?NOEC” value in data set [1] (3 weeks Selenastrum capricornutum, printed with question marks) is 100 mg/l? 3 weeks. Further, the “chronic NOEC” value is listed as “chronic NOEC 100 mg/l 4 d” in data set [1] (4 d Gloeocapsa (Cyanobacteria)), “chronic NOEC 250 mg/l 96 h” in data set [1] (96 h Tetrahymena pyriformis), “chronic NOEC 10 mg/l” in data set [1] (setting [13]) and “chronic NOEC 20 mg/l ~2 d,” in data set [1] (setting [14]). Besides, in data set [1] (Chlorella vulgaris 96 h, freshwater), the “algal NOEC” value was “algal NOEC 2 mg/l”. In addition, the “Biodegradability according to Roche's inherent biodegradability test (OECD 302)” value in data set [1] is reported as “Poor biodegradability”. In addition, the “algal EC10 (~NOEC)” value in data set [1] (Scenedesmus quadricauda 96 h, freshwater) is “algal EC10 (~NOEC) 6.99 mg/l”. For the same compound, the EC50 result in data set [1] (freshwater) was “EC50 ≥100 mg/l, ?NOEC”.

For Triton X-100, the “BVDV log reduction value” in data set [6] (30 min) is 5.4 and 5.5; in data set [6] (60 min), >5.4 and >5.5.
